Results published in patent US20250281560A1, “METHOD FOR PREVENTING AND/OR TREATING CANCER OR AUTOIMMUNE DISEASE WITH 3,4,2 Prime,3 Prime,4 Prime-PENTAHYDROXY-TRANS-CHALCONE” (priority 2024, published 2025).

Columns and labels:
[1] = molecular target: human peptidylarginine deiminase 4 (PAD4) (Homo sapiens, UniProt Q9UM07); assay: Inhibition of the activity of human peptidylarginine deiminase 4 by continuous spectrophotometry; assay type: biochemical; settings: human PAD4, isolated component, FIG. 10
Sequence of human peptidylarginine deiminase 4 (PAD4) (Q9UM07 whole entry): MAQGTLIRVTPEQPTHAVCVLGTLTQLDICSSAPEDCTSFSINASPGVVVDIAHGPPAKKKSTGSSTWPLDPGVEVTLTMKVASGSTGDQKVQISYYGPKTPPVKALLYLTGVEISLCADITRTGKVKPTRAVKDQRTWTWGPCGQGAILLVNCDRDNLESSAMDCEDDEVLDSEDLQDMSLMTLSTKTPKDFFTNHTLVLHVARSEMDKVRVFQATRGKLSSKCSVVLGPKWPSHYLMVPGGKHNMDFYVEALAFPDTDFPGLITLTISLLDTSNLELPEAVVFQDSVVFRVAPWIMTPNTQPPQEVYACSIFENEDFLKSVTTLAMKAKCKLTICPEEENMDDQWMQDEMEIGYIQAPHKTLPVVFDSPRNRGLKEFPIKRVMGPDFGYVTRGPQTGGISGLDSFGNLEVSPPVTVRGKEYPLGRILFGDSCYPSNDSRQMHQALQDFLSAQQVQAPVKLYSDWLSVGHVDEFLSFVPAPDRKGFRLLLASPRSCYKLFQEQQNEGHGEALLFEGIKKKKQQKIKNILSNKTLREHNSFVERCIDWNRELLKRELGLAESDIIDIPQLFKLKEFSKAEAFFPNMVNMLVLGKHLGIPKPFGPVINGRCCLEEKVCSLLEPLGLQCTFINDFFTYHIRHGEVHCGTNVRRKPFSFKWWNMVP
Experimental: In this example, inhibition of the activity of human peptidylarginine deiminase 4 (PAD4) was tested by continuous spectrophotometry. The standard PAD4 spectrophotometric reaction mixture contained 10 mM BAEE (benzoyl-L-arginine ethyl ester), 10 mM CaCl2), 2.5 mM dithiothreitol (DTT), 8.5 mM α-ketoglutarate (α-KG), 0.22 mM NADH, and 3 U glutamate dehydrogenase (GDH). 100 mM Tris-HCl (pH 7.5) was added into a 1-mL colorimetric tube, followed by a predetermined amount of an Acacia confusa extract sample as an inhibitor. The temperature was controlled at 37° C. An appropriate amount of PAD4 was then added into the test mixture to start the reaction. Once the enzyme PAD4 was added into the reaction mixture, the decrease in absorbance at 340 nm was continuously recorded with a spectrophotometer (Beckman DU 7500). The unit of the enzyme PAD4 was defined as the amount reduced in order to catalyze the conversion of 1 μmol of NADH to NAD^+ per minute. For the calculation of enzyme activity, 6220 M^−1cm^−1 was used as the molar absorptivity of the NADH.
Referring to the content of Example 3 to detect the inhibiting activity of peptidylarginine deiminase 4 (PAD4) of components of the Acacia confusa ethyl acetate extract: Melanoxetin, Okanin and Transilitin, the results are shown in FIG. 10.

[2] = molecular target: T1, human ornithine decarboxylase (ODC) (Homo sapiens, UniProt P11926); assay: Inhibition of the activity of human ornithine decarboxylase by continuous spectrophotometry; assay type: biochemical; settings: isolated component, FIG. 9
T1 sequence (P11926 1-461): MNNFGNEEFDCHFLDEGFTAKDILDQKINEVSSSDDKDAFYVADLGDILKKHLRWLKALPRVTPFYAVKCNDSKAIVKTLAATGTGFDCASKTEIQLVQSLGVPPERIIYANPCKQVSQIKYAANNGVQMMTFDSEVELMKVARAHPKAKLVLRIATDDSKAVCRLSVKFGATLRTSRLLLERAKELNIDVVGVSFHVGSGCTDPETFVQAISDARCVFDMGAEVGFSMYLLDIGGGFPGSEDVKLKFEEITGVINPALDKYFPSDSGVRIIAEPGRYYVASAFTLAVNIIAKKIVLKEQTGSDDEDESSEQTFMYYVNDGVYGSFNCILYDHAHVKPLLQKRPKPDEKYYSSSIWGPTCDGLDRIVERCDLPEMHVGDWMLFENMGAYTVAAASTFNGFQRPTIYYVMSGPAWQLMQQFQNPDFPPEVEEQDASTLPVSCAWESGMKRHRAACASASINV
Experimental: In this example, inhibition of the activity of human ornithine decarboxylase (ODC) was tested by continuous spectrophotometry. The standard ODC spectrophotometric reaction composition contained 30 mM Tris-HCl (pH 7.8), 10 mM ornithine, and 0.2 mM pyridoxal 5′-phosphate (PLP), together with 12.5 mM phosphoenolpyruvate, 0.4 unit/mL […] of microbes, 4.1 unit/mL malate dehydrogenase (malate dehydrogenase of mammals), and 0.6 mM NADH analog, with the final volume being 0.5 mL. The test mixture was added with a predetermined amount of an Acacia confusa extract sample as an inhibitor and then added with an appropriate amount of ODC to start the reaction. Once the enzyme ODC was added into the reaction mixture, the decrease in absorbance at 405 nm was continuously tracked with Lambda 25 UV-visible spectrophotometer (PerkinElmer Life Sciences). By this test method, 1 mole of CO2 was generated under the test conditions, and 1 mole of NADH analog was oxidized. The unit of the enzyme ODC was defined as the amount of the enzyme that is required to catalyze the generation of 1 mole of NAD per minute. For the calculation, 2410 M^−1cm^−1 was used as the molar absorptivity of the NADH analog. […]

Question: Which results are given for `O=C(/C=C/c1ccc(O)c(O)c1)c1ccc(O)c(O)c1O` [Okanin, 3,4,2′,3′,4′-pentahydroxy-trans-chalcone]?
Answer: IC50 [1]: 89.2 ± 8.3 µM; IC50 [2]: 8.2 ± 2.1 µM
